Patent publication US8426345B2, “Method of drug design” (Alchemia Limited, priority 2005, dated 2013)

Target: T1, Human SST5 somatostatin receptor (Homo sapiens, UniProt P35346)
T1 construct: expressed in transfected cells; host or cells: HEK-293 EBNA cells (membranes)
Experiment: Filter plate radio-ligand binding assay for SST5 receptor ([125I]SST-14 displacement)
Conditions: 3P library; for % SST5 radio-ligand binding displaced at conc 1.0: conc 1.0 μM; for % SST5 radio-ligand binding displaced at conc 0.25: conc 0.25 μM; for % SST5 radio-ligand binding displaced at conc 50: conc 50 μM; for % SST5 radio-ligand binding displaced at conc 250: conc 250 μM; for % SST5 radio-ligand binding displaced at conc 500: conc 500 μM

T1 sequence (P35346 whole entry): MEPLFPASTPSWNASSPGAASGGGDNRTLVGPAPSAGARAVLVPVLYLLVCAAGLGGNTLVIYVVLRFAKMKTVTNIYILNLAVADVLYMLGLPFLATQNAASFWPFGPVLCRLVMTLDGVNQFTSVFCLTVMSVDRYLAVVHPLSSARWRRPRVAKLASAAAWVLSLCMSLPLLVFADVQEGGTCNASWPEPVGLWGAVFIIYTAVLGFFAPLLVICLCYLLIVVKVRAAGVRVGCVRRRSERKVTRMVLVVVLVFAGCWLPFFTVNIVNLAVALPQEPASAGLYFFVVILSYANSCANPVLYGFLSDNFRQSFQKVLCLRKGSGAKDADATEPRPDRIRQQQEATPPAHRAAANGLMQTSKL

Compound	% SST5 radio-ligand binding displaced at conc 1.0	% SST5 radio-ligand binding displaced at conc 0.25	further results
COC[C@H]1O[C@H](OCc2ccc3ccccc3c2)[C@H](NC(=O)CCCN)[C@@H](OCc2ccc(Cl)cc2)[C@@H]1O [Compound 134]	++ (% SST5 radio-ligand binding displaced at conc (μM) >60%)	–	% SST5 radio-ligand binding displaced at conc 0.001 (conc 0.001 μM): + (% SST5 radio-ligand binding displaced at cone (μM) 60>+>40%); % SST5 radio-ligand binding displaced at conc 0.10 (conc 0.10 μM): ++ (% SST5 radio-ligand binding displaced at conc (μM) >60%); % SST5 radio-ligand binding displaced at conc 0.5 (conc 0.5 μM): ++ (% SST5 radio-ligand binding displaced at conc (μM) >60%); % SST5 radio-ligand binding displaced at conc 10 (conc 10 μM): ++ (% SST5 radio-ligand binding displaced at conc (μM) >60%)
NCCCC(=O)N[C@H]1[C@@H](OCc2ccc3ccccc3c2)O[C@H](COCc2ccc3ccccc3c2)[C@@H](O)[C@@H]1OCc1ccc(Cl)cc1 [Compound 135]	++ (% SST5 radio-ligand binding displaced at conc (μM) >60%)	− (% SST5 radio-ligand binding displaced at cone (μM) −<40%)	–
NCCCC(=O)N[C@H]1[C@@H](OCc2ccc3ccccc3c2)O[C@H](COCc2ccccc2)[C@@H](O)[C@@H]1OCc1ccc(Cl)cc1 [Compound 136]	++ (% SST5 radio-ligand binding displaced at conc (μM) >60%)	− (% SST5 radio-ligand binding displaced at cone (μM) −<40%)	–
NCCCC(=O)N[C@H]1[C@@H](OCc2ccc3ccccc3c2)O[C@H](COCc2ccc(Cl)cc2)[C@@H](O)[C@@H]1OCc1ccc(Cl)cc1 [Compound 137]	++ (% SST5 radio-ligand binding displaced at conc (μM) >60%)	− (% SST5 radio-ligand binding displaced at cone (μM) −<40%)	–
COC[C@H]1O[C@H](OCc2ccc3ccccc3c2)[C@H](NC(=O)C(N)CCN)[C@@H](OCc2ccc3ccccc3c2)[C@@H]1O (stereo partly drawn) [Compound 138]	− (% SST5 radio-ligand binding displaced at cone (μM) −<40%)	− (% SST5 radio-ligand binding displaced at cone (μM) −<40%)	–
CNCCCC(=O)N[C@H]1[C@@H](OCc2ccc3ccccc3c2)O[C@H](COC)[C@@H](O)[C@@H]1OCc1ccc2ccccc2c1 [Compound 139]	+ (% SST5 radio-ligand binding displaced at cone (μM) 60>+>40%)	− (% SST5 radio-ligand binding displaced at cone (μM) −<40%)	–
COC[C@H]1O[C@H](OCc2ccc3ccccc3c2)[C@H](NC(=O)CCC(C)N)[C@@H](OCc2ccc3ccccc3c2)[C@@H]1O (stereo partly drawn) [Compound 140]	++ (% SST5 radio-ligand binding displaced at conc (μM) >60%)	++ (% SST5 radio-ligand binding displaced at conc (μM) >60%)	–
COC[C@H]1O[C@H](OCc2ccc3ccccc3c2)[C@H](NC(=O)CCCN(C)C)[C@@H](OCc2ccc3ccccc3c2)[C@@H]1O [Compound 141]	− (% SST5 radio-ligand binding displaced at cone (μM) −<40%)	− (% SST5 radio-ligand binding displaced at cone (μM) −<40%)	–
COC[C@H]1O[C@H](OCc2ccc3ccccc3c2)[C@H](NC(=O)CCCN2CCCC2)[C@@H](OCc2ccc3ccccc3c2)[C@@H]1O [Compound 143]	− (% SST5 radio-ligand binding displaced at cone (μM) −<40%)	− (% SST5 radio-ligand binding displaced at cone (μM) −<40%)	–
COC[C@H]1O[C@H](OCc2ccc3ccccc3c2)[C@H](NC(=O)CCCN)[C@@H](OCc2cccc(Cl)c2)[C@@H]1O [Compound 144]	++ (% SST5 radio-ligand binding displaced at conc (μM) >60%)	+ (% SST5 radio-ligand binding displaced at cone (μM) 60>+>40%)	–
COC[C@H]1O[C@H](OCc2ccc3ccccc3c2)[C@H](NC(=O)CCCN)[C@@H](OCc2cc(Cl)ccc2Cl)[C@@H]1O [Compound 145]	++ (% SST5 radio-ligand binding displaced at conc (μM) >60%)	+ (% SST5 radio-ligand binding displaced at cone (μM) 60>+>40%)	–
COC[C@H]1O[C@H](OCc2ccc3ccccc3c2)[C@H](NC(=O)CCCN)[C@@H](OCc2ccccc2Cl)[C@@H]1O [Compound 146]	++ (% SST5 radio-ligand binding displaced at conc (μM) >60%)	− (% SST5 radio-ligand binding displaced at cone (μM) −<40%)	–
COC[C@H]1O[C@H](OCc2ccc3ccccc3c2)[C@H](NC(=O)CCCN)[C@@H](OCc2cccc3cccnc23)[C@@H]1O [Compound 147]	++ (% SST5 radio-ligand binding displaced at conc (μM) >60%)	+ (% SST5 radio-ligand binding displaced at cone (μM) 60>+>40%)	–
COC[C@H]1O[C@H](OCc2ccc3ccccc3c2)[C@H](NC(=O)CCCN)[C@@H](OCc2nc3ccccc3s2)[C@@H]1O [Compound 148]	− (% SST5 radio-ligand binding displaced at cone (μM) −<40%)	− (% SST5 radio-ligand binding displaced at cone (μM) −<40%)	–
COC[C@H]1O[C@H](OCc2ccc3ccccc3c2)[C@H](NC(=O)CCCN)[C@@H](OCc2nccc3ccccc23)[C@@H]1O [Compound 149]	+ (% SST5 radio-ligand binding displaced at cone (μM) 60>+>40%)	− (% SST5 radio-ligand binding displaced at cone (μM) −<40%)	–
COC[C@H]1O[C@H](OCc2ccc3ccccc3c2)[C@H](NC(=O)CCCN)[C@@H](OCc2ccc(Cl)c(Cl)c2)[C@@H]1O [Compound 150]	++ (% SST5 radio-ligand binding displaced at conc (μM) >60%)	++ (% SST5 radio-ligand binding displaced at conc (μM) >60%)	–
COC[C@H]1O[C@H](OCc2ccc3ccccc3c2)[C@H](NC(=O)CCCN)[C@@H](OCc2cccc3ccccc23)[C@@H]1O [Compound 151]	++ (% SST5 radio-ligand binding displaced at conc (μM) >60%)	+ (% SST5 radio-ligand binding displaced at cone (μM) 60>+>40%)	–
COC[C@H]1O[C@H](OCc2ccc3ccccc3c2)[C@H](NC(=O)CCCN)[C@@H](OCc2ccc(Cl)cc2Cl)[C@@H]1O [Compound 152]	++ (% SST5 radio-ligand binding displaced at conc (μM) >60%)	+ (% SST5 radio-ligand binding displaced at cone (μM) 60>+>40%)	–
COC[C@H]1O[C@H](OCc2ccc3ccccc3c2)[C@H](NC(=O)CCCN)[C@@H](OCc2ccc3ccccc3n2)[C@@H]1O [Compound 153]	++ (% SST5 radio-ligand binding displaced at conc (μM) >60%)	++ (% SST5 radio-ligand binding displaced at conc (μM) >60%)	–
COC[C@H]1O[C@H](OCc2ccc3ccccc3c2)[C@H](NC(=O)CCCN)[C@@H](OCc2cccc(Cl)c2Cl)[C@@H]1O [Compound 154]	++ (% SST5 radio-ligand binding displaced at conc (μM) >60%)	++ (% SST5 radio-ligand binding displaced at conc (μM) >60%)	–
COC[C@H]1O[C@H](OCc2ccc3ccccc3c2)[C@H](NC(=O)CCCN)[C@@H](OCc2ccc(Oc3ccccc3)cc2)[C@@H]1O [Compound 155]	++ (% SST5 radio-ligand binding displaced at conc (μM) >60%)	++ (% SST5 radio-ligand binding displaced at conc (μM) >60%)	–
COC[C@H]1O[C@H](OCc2ccc(Cl)cc2)[C@H](NC(=O)CN)[C@@H](OC)[C@@H]1O [Compound 156]	–	–	% SST5 radio-ligand binding displaced at conc 50: − (% SST5 radio-ligand binding displaced at cone (μM) −<40%); % SST5 radio-ligand binding displaced at conc 250: − (% SST5 radio-ligand binding displaced at cone (μM) −<40%); % SST5 radio-ligand binding displaced at conc 500: − (% SST5 radio-ligand binding displaced at cone (μM) −<40%)
COC[C@H]1O[C@@H](OCc2ccc(Cl)cc2)[C@H](NC(=O)CN)[C@@H](OC)[C@@H]1O [Compound 157]	–	–	% SST5 radio-ligand binding displaced at conc 50: − (% SST5 radio-ligand binding displaced at cone (μM) −<40%); % SST5 radio-ligand binding displaced at conc 250: − (% SST5 radio-ligand binding displaced at cone (μM) −<40%); % SST5 radio-ligand binding displaced at conc 500: − (% SST5 radio-ligand binding displaced at cone (μM) −<40%)
COC[C@H]1O[C@H](OCc2ccc(Cl)cc2)[C@H](NC(=O)CN)[C@H](OC)[C@@H]1O [Compound 158]	–	–	% SST5 radio-ligand binding displaced at conc 50: − (% SST5 radio-ligand binding displaced at cone (μM) −<40%); % SST5 radio-ligand binding displaced at conc 250: − (% SST5 radio-ligand binding displaced at cone (μM) −<40%); % SST5 radio-ligand binding displaced at conc 500: − (% SST5 radio-ligand binding displaced at cone (μM) −<40%)
COC[C@H]1O[C@@H](OCc2ccc(Cl)cc2)[C@H](NC(=O)CN)[C@H](OC)[C@@H]1O [Compound 159]	–	–	% SST5 radio-ligand binding displaced at conc 50: − (% SST5 radio-ligand binding displaced at cone (μM) −<40%); % SST5 radio-ligand binding displaced at conc 250: − (% SST5 radio-ligand binding displaced at cone (μM) −<40%); % SST5 radio-ligand binding displaced at conc 500: − (% SST5 radio-ligand binding displaced at cone (μM) −<40%)
